The text below walks through data of patent US6767887B1, “Exendin analogues, processes for their preparation and medicaments containing them” (Roche Diagnostics GmbH, priority 1999, dated 2004).

One data set relates to clonal B cell line INS-1. The data set can be described thus: Increase of cytosolic calcium concentration in INS-1 cells (Fura-2). It counts as cell-based. As to conditions: peptide 10^−8 M, 10 mM glucose. Here is the method:
Measurement of the Increase of the Cytosolic Calcium Concentration in B Cells of the Endocrine Pancreas (Clonal B Cell Line INS-1)
INS-1 cells are cultured in RPMI 1640 medium containing 10% FCS, 10 mM HEPES buffer (pH 7.4), 2 mM L-glutamine, 100 i.U. penicillin/ml, 100 μg streptomycine/ml, 1 mM pyruvate (sodium salt) and 50 μM 2-mercaptoethanol at 37° C. in an atmosphere of 95% air and 5% CO2. After 6 to 8 days growth on plastic cell culture plates, the subconfluent cells, after rinsing once with PBS (phosphate-buffered saline), are detached from the base by incubating for four minutes at 37° C. with 0.025% trypsin and 0.27 mM EDTA in isoosmotic saline solution
The detached cells are resuspended in Spinner medium (culture medium as above, but containing 5% FCS and 25 mM HEPES) and incubated for two and a half hours in a Spinner bottle with a stirrer bar. Afterwards the medium is removed by centrifugation and the cells are resuspended in Spinner medium. They are then incubated for 30 minutes at 37° C. with 2 μM Fura-2/acetoxymethyl ester under the same conditions as before. The Fura loading of the cells is terminated by washing the cells once Spinner medium (room temperature). Afterwards the cells are resuspended in spinner medium at room temperature (2×10^7 cells/ml). The cells are then removed from this suspension for calcium measurements.
The measurements are carried out at 37° C. in a modified Krebs-Ringer buffer (KRBH) containing 136 mM NaCl, 4.8 mM KCl, 2 mM CaCl2, 1.2 MM MgSO4, 1.2 mM KH2PO4, 5 mM NaNCO3, 10 mM glucose, 250 μM sulfinpyrazone (to inhibit the Fura-2 efflux into the medium) and 25 mM HEPES buffer (adjusted to pH 7.4 with NaOH). The cell concentration is 1-2×10^6/ml. The measurements are carried out in a cuvette stirred with a stirring bar in a spectrofluorimeter at 37° C. with 1.5 ml cell suspension. The excitation wavelength is 340 nm, the emission wavelength is 505 nm. At the end of the measurement 50 μM MnCl2 is added which is followed by 100 μm DTPA (diethylenetriamine pentaacetate) in order to determine the proportion of extracellular fluorescence indicator relative to the measured fluorescence by temporarily quenching the fluorescence of extracellular Fura. After the addition of DTPA the entire Fura is firstly converted into a calcium-saturated and then into a calcium-free state to determine the calibration values Fmax (calcium-saturated) and Fmin (calcium-free) for the respective measurement. For this purpose the cells are lysed by adding 0.1% Triton X-100. The dye is saturated with calcium by contact with the high extracellular calcium concentration. […]
The cytosolic calcium ion concentration is calculated according to the algorithm introduced by R. Tsien and colleagues (Grynkiewicz, G., 1985): […]

Data set [1] concerns the target dipeptidyl peptidase IV (DDP-IV) (Homo sapiens, UniProt P27487).
Experimental: Renal brush border microvilli membranes (BBM) are therefore a suitable source for the relevant ectopeptidases and can be used as an in vitro test for the metabolic stability of synthetic peptides. Alternatively it is possible to use ectopeptidase preparations.
(§1) Microvilli membranes (0.5-1 μg protein) or the respective ectopeptidase preparation (60-300 ng) were incubated with 10 μg peptide (about 3 nmol) in 100 μl HEPES buffer (50 mM, pH 7.4) which contained 50 mM NaCl. The reactions were terminated at predetermined times (duration up to 1 hour) by boiling. Subsequently the samples were centrifuged (10,000×g), diluted with 150 μl 0.1% TFA and analysed by means of reversed phase (RP) HPLC. Each sample was determined in duplicate.
A system with the following components was used for HPLC analysis: A 2248 low pressure pump (Pharmacia-LKB, Freiburg), a WISP 10B autoinjector (Millipore-Waters, Eschborn), a UV detector SP-4 (Gynkotec, Berlin), a low pressure mixing system (Pharmacia-LKB, Freiburg) and a program manager software control (Pharmacia-LKB, Freiburg). […] After injection of 244 μl of the sample solution onto a column equilibrated with the motile solvent A, the incubation products were eluted with a linear gradient of 0% to 80% B in 80 min and detected at 215 nm UV absorption. […]
Data set [2] deals with brush border microvilli membranes (BBM). The note with it: pH 7.4.
Experimental: Renal brush border microvilli membranes (BBM) are therefore a suitable source for the relevant ectopeptidases and can be used as an in vitro test for the metabolic stability of synthetic peptides.
Microvilli membranes of the rat and pig kidney cortex are isolated by means of subcellular fractionation using the differential centrifugation method (Booth and Kenny (1975)). 4 Brush border ectopeptidases are examined fluorimetrically and other marker enzymes are measured colorimetrically in order to assess the degree of purity and the yield of membranes.
as §1
A system with the following components was used for HPLC analysis: A 2248 low pressure pump (Pharmacia-LKB, Freiburg), a WISP 10B autoinjector (Millipore-Waters, Eschborn), a UV detector SP-4 (Gynkotec, Berlin), a low pressure mixing system (Pharmacia-LKB, Freiburg) and a program manager software control (Pharmacia-LKB, Freiburg). […]
A further data set concerns isolated islet cells. The data set can be described thus: Insulin release from isolated islets. It is filed as cell-based, mice. Here is the method:
The abdomen of anaesthetised (0.3-0.5 ml nembutal/isotonic saline solution 1:4 i.p.) mice is opened by a median incision and two side incisions, the peritoneum is immobilized and cut open at the costal arch along the diaphragm. All organs are inflated and stained red by injection of a neutral red solution into the left ventricle. The pancreas is carefully removed along the stomach and duodenum up to the mesenteries. Until digestion the pancreas is placed in an ice-cooled petri dish in Hank's balanced salt solution (HBBS) and a few drops of neutral red.
Two pancreases are dabbed with cellulose, placed in a tube, 5 ml freshly prepared collagenase solution (collagenase (Cl. histolyticum) 0.74 U/mg, Serva, 2 mg/ml in HBBS/water 1:9, pH 7.4) is added and they are incubated for 18 minutes at 37° C. while shaking. Subsequently a centrifugation is carried out at 1000 rpm for 1 minute. The supernatant is discarded, In a second digestion step 5 ml collagenase solution (1 mg/ml) is incubated for 4 minutes, shaken and undigested tissue is sedimented. The supernatant is decanted and the whole process is repeated four to five times. The supernatant is then centrifuged for 1 minute at 1000 rpm and the collagenase solution is discarded. The remaining pellet is shaken with ice-cold HBBS and sedimented for ca. 10 minutes on ice. This wash process is repeated for a further three times. The faint pink stained islets are picked out from the washed pellets under a stereoscopic magnifying glass and transferred to culture medium (100 ml RPMI 1640 (Gibco), 1 ml glutamine, 1 ml penicillin, 1 ml Cibrobay antibiotic (Bayer), 10 ml foetal calf serum, 2 ml Hepes buffer 1 M). In order to obtain the purest possible culture, the islets are picked two to three times and transferred to fresh culture medium.
The islet cells from the culture medium are distributed in Eppendorff vessels containing […] stimulation buffer (118 mM NaCl, 0.2 mM NaH^2PO^4, 0.565 mM MgCl^2, 1.25 mM CaCl^2, 4.1 mM KCl, 10 mM Hepes, 1% BSA, 3.3 mM glucose; pH 7.4) in a quantity of 10 islets per Eppendorff vessel and placed in an incubator for 1 hour at 37° C. Subsequently the peptides to be tested are added and filled up to […] with stimulation buffer and incubated for one hour at 37° C. The islets are centrifuged at 1000 rpm for 1 minute. The amount of […] is measured in the supernatant using an insulin-RIA (DPC Biermann, Nauheim). Each test substance was determined in quadruplicate.
Some exendin analogues were tested as described above on isolated islet cells for insulin secretory activity.
Insulin Release From Isolated Islets After 1 Hour [mIU/h/10 Islets] in the Presence of 10 mM Glucose: […]

Where a SMILES comes first, the peptide text is derived from it. Where no end group is shown, it is not given here. [ ]: non-standard residue; d: D form. Nle = CCCC[C@H](N)C(=O)O

Chain of dipeptidyl peptidase IV (DDP-IV) (P27487 whole entry): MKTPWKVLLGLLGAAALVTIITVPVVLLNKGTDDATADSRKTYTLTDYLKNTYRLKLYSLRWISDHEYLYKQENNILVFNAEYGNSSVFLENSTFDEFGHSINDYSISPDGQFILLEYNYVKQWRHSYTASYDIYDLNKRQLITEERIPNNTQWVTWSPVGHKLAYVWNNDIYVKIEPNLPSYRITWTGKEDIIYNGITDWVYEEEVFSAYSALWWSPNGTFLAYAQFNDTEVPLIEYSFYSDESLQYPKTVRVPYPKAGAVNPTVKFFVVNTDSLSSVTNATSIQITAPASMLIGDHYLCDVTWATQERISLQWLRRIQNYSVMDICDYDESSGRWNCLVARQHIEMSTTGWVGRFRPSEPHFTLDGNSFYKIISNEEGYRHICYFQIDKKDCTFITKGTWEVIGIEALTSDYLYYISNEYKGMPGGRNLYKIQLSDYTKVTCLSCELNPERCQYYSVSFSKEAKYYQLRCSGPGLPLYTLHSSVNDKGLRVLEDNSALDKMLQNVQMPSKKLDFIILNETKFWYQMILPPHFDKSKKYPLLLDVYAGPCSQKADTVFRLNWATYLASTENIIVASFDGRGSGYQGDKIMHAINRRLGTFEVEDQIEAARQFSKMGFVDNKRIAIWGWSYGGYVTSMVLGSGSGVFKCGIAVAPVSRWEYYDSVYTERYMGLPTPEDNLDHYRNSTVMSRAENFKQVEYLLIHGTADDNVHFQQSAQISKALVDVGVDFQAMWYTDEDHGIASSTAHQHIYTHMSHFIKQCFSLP

As to “10 (HGEGTFTSDLSKQMEEEAVRAFIEWLKAGR) [compound 10]”, the “Δ[Ca^2+]cyt ± SD (n = 4)” value in the data set with clonal B cell line INS-1 was 69 ± 30 nM. For the compound `CCCC[C@H](NC(=O)[C@H](CCC(N)=O)NC(=O)[C@H](CCCCN)NC(=O)[C@H](CO)NC(=O)[C@H](CC(C)C)NC(=O)[C@H](CC(=O)O)NC(=O)[C@H](CO)NC(=O)[C@@H](NC(=O)[C@H](Cc1ccccc1)NC(=O)[C@@H](NC(=O)CNC(=O)[C@H](CC(=O)O)NC(=O)[C@H](C)NC(=O)[C@@H](N)Cc1c[nH]cn1)[C@@H](C)O)[C@@H](C)O)C(=O)N[C@@H](CCC(=O)O)C(=O)N[C@@H](CCC(=O)O)C(=O)N[C@@H](CCC(=O)O)C(=O)N[C@@H](C)C(=O)N[C@H](C(=O)N[C@@H](CCCNC(=N)N)C(=O)N[C@@H](CC(C)C)C(=O)N[C@@H](Cc1ccccc1)C(=O)N[C@H](C(=O)N[C@@H](CCC(=O)O)C(=O)N[C@@H](Cc1c[nH]c2ccccc12)C(=O)N[C@@H](CC(C)C)C(=O)N[C@@H](CCCCN)C(=O)N[C@@H](CC(N)=O)C(=O)NCC(=O)N[C@@H](CCCNC(=N)N)C(N)=O)[C@@H](C)CC)C(C)C` [compound 78] (H-HADGTFTSDLSKQ[Nle]EEEAVRLFIEWLKNGR-NH2), in data set [1], the “Substrate for DDP-IV” value was “no proteolysis”. `CCCC[C@H](NC(=O)[C@H](CCC(N)=O)NC(=O)[C@H](CCCCN)NC(=O)[C@H](CO)NC(=O)[C@H](CC(C)C)NC(=O)[C@H](CC(=O)O)NC(=O)[C@H](CO)NC(=O)[C@@H](NC(=O)[C@H](Cc1ccccc1)NC(=O)[C@@H](NC(=O)CNC(=O)[C@H](CC(=O)O)NC(=O)[C@H](CCCCN)NC(=O)[C@@H](N)Cc1c[nH]cn1)[C@@H](C)O)[C@@H](C)O)C(=O)N[C@@H](CCC(=O)O)C(=O)N[C@@H](CCC(=O)O)C(=O)N[C@@H](CCC(=O)O)C(=O)N[C@@H](C)C(=O)N[C@H](C(=O)N[C@@H](CCCNC(=N)N)C(=O)N[C@@H](CC(C)C)C(=O)N[C@@H](Cc1ccccc1)C(=O)N[C@H](C(=O)N[C@@H](CCC(=O)O)C(=O)N[C@@H](Cc1c[nH]c2ccccc12)C(=O)N[C@@H](CC(C)C)C(=O)N[C@@H](CCCCN)C(=O)N[C@@H](CC(N)=O)C(=O)NCC(=O)N[C@@H](CCCNC(=N)N)C(N)=O)[C@@H](C)CC)C(C)C` [compound 86] (H-HKDGTFTSDLSKQ[Nle]EEEAVRLFIEWLKNGR-NH2): the Degradation rate in data set [2] stood at 2.05 ng peptide/min/mg BBM.

Regarding “GLP-1-(7-36)-NH2 [GLP1-(7-36)-NH2, reference compound]”, in the data set with clonal B cell line INS-1, the “Δ[Ca^2+]cyt ± SD (n = 4)” value turned out to be 65 ± 10 nM. Moreover, the “Insulin release from isolated islets after 1 hour” value with isolated islet cells (peptide 10^−7, 10 mM glucose) came out at 53.52 mIU/h/10 Islets; in the data set with isolated islet cells (peptide 10^−8, 10 mM glucose) it was 42.78 mIU/h/10 Islets; with isolated islet cells (peptide 10^−9, 10 mM glucose), 29.99 mIU/h/10 Islets. “[Ala^21, Arg^30]-exendin-4-(1-30)-NH2 [Seq. ID 8]”: the “Δ[Ca^2+]cyt ± SD (n = 4)” value with clonal B cell line INS-1 is given as 64 ± 8 nM. For the compound “[H^2 Nle^14R^30]-Ex-3-(1-30)—NH2 (HHDGTFTSDLSKQ[Nle]EEEAVRLFIEWLKNGR-NH2; N-terminus assumed; SMILES CCCC[C@H](NC(=O)[C@H](CCC(N)=O)NC(=O)[C@H](CCCCN)NC(=O)[C@H](CO)NC(=O)[C@H](CC(C)C)NC(=O)[C@H](CC(=O)O)NC(=O)[C@H](CO)NC(=O)[C@@H](NC(=O)[C@H](Cc1ccccc1)NC(=O)[C@@H](NC(=O)CNC(=O)[C@H](CC(=O)O)NC(=O)[C@H](Cc1c[nH]cn1)NC(=O)[C@@H](N)Cc1c[nH]cn1)[C@@H](C)O)[C@@H](C)O)C(=O)N[C@@H](CCC(=O)O)C(=O)N[C@@H](CCC(=O)O)C(=O)N[C@@H](CCC(=O)O)C(=O)N[C@@H](C)C(=O)N[C@H](C(=O)N[C@@H](CCCNC(=N)N)C(=O)N[C@@H](CC(C)C)C(=O)N[C@@H](Cc1ccccc1)C(=O)N[C@H](C(=O)N[C@@H](CCC(=O)O)C(=O)N[C@@H](Cc1c[nH]c2ccccc12)C(=O)N[C@@H](CC(C)C)C(=O)N[C@@H](CCCCN)C(=O)N[C@@H](CC(N)=O)C(=O)NCC(=O)N[C@@H](CCCNC(=N)N)C(N)=O)[C@@H](C)CC)C(C)C) [Seq. ID 84]”, the “Insulin release from isolated islets after 1 hour” value is 48.94 mIU/h/10 Islets in the data set with isolated islet cells (peptide 10^−7, 10 mM glucose); 41.72 mIU/h/10 Islets with isolated islet cells (peptide 10^−8, 10 mM glucose); 38.76 mIU/h/10 Islets with isolated islet cells (peptide 10^−9, 10 mM glucose); 35.05 mIU/h/10 Islets with isolated islet cells (peptide 10^−10, 10 mM glucose). Take “[Nle^14, Arg^30]-exendin-3-(1-30)-NH2 (HSDGTFTSDLSKQ[Nle]EEEAVRLFIEWLKNGR-NH2; N-terminus assumed; SMILES CCCC[C@H](NC(=O)[C@H](CCC(N)=O)NC(=O)[C@H](CCCCN)NC(=O)[C@H](CO)NC(=O)[C@H](CC(C)C)NC(=O)[C@H](CC(=O)O)NC(=O)[C@H](CO)NC(=O)[C@@H](NC(=O)[C@H](Cc1ccccc1)NC(=O)[C@@H](NC(=O)CNC(=O)[C@H](CC(=O)O)NC(=O)[C@H](CO)NC(=O)[C@@H](N)Cc1c[nH]cn1)[C@@H](C)O)[C@@H](C)O)C(=O)N[C@@H](CCC(=O)O)C(=O)N[C@@H](CCC(=O)O)C(=O)N[C@@H](CCC(=O)O)C(=O)N[C@@H](C)C(=O)N[C@H](C(=O)N[C@@H](CCCNC(=N)N)C(=O)N[C@@H](CC(C)C)C(=O)N[C@@H](Cc1ccccc1)C(=O)N[C@H](C(=O)N[C@@H](CCC(=O)O)C(=O)N[C@@H](Cc1c[nH]c2ccccc12)C(=O)N[C@@H](CC(C)C)C(=O)N[C@@H](CCCCN)C(=O)N[C@@H](CC(N)=O)C(=O)NCC(=O)N[C@@H](CCCNC(=N)N)C(N)=O)[C@@H](C)CC)C(C)C) [Seq. ID 5]”: the “Δ[Ca^2+]cyt ± SD (n = 4)” value with clonal B cell line INS-1 is 63 ± 8 nM.
